Values of other authors, collected in patent US10466148B2, “Use of platinum wire electrode and synthetic fiber for flow assisted electro-enhanced solid phase microextraction” (KING FAHD UNIVERSITY OF PETROLEUM AND MINERALS, priority 2015, dated 2019).

How the values were obtained:
[1] = not given; remark: listed apart in the source
[2] = not given; remark: listed apart in the source
[3] = not given; remark: listed apart in the source

Structure (SMILES) | Diffusion coefficient in water [cm^2 s^−1] | Henry's law constant at 20° C. [1] | Diffusion coefficient in air [2] [cm^2 s^−1] | Vapor pressure at 20-25° C. [3] [mmHg]
Clc1ccc(Oc2ccccc2)cc1 [CPPE, 4-chlorophenyl phenyl ether] | 6.18E−06 | 0.012 | 0.048 | 0.0016
Brc1ccc(Oc2ccccc2)cc1 [BPPE, 4-bromophenyl phenyl ether] | 6.27E−06 | 0.009 | 0.047 | 0.0005
